Measurements published in US20250163016A1, “PYRIDINE DERIVATIVE, PREPARATION METHOD THEREFOR AND USE THEREOF” (CHENGDU EASTON BIOPHARMACEUTICALS CO., LTD., priority 2022, published 2025).

What was measured:
[1] = tested on: HL-60 cell subcutaneous heterograft tumor; test: In-vivo efficacy in HL-60 cell subcutaneous heterograft tumor model; set-up: species or system Balb/C nu mice; conditions: HL-60 xenograft, qd, p.o., 10 mg/Kg, 10 days
Method: • DMEM culture medium containing 10% fetal bovine serum (FBS), 37° C., 5% CO2.
Balb/C nu mice, female, 6-8 weeks, weight about 18-22 grams, and each mouse was subcutaneously inoculated with 0.1 mL (1×10^7 cells+matrigel) of HL-60 cells on the right side. When an average volume of tumors reached 100-200 cubic millimeters, group administration was performed, see the table below (Table 13) for administration dosages and methods. The tumor volume was measured twice a week, the weights of the mice as well as lengths and widths of tumors were recorded in each time of measurement, and the tumor volume=length×width×width/2 mm^3. When the average tumor volume of a solvent group grew to 3000 cubic millimeters or above, administration was ended, and an average tumor volume difference between a tested compound group and the solvent group was obtained via comparison. The tumor suppression effects of the compounds were evaluated with TGI (%), which could reflect a tumor growth inhibition rate.

[2] = Pharmacokinetics of oral and intravenous administration of rats; format: in vivo; conditions: male, rat, plasma, SD rats; for bioavailability: oral, p.o. 5.0 mg/kg vs i.v. 5.0 mg/kg, read-out: F (bioavailability)
Method: With SD rats as tested animals, blood drug concentrations of the compounds of the present application in plasma at different moments after oral administration and intravenous administration to the rats were determined using an LC-MS/MS method, pharmacokinetic parameters and bioavailabilities of the compounds of the present application in the rats were obtained, and pharmacokinetic characteristics of the compounds were studied.
• SD rats, male, weight 180-220 g, 3 rats per group. The animals were fed in an animal house after being purchased, an adaptation period was at least 3 days, and they were used for tests after passing quarantine.
3.2. Solvent: p.o.: 0.5% Sodium Methylcellulose Aqueous Solution
• i.v.: 5% DMSO+10% Solutol+85% Saline
According to Table 6, each group of rats was given the corresponding tested drugs or positive drugs by gavage, before administration, and 5 min, 15 min, 30 min, 1 h, 2 h, 4 h, 6 h, 8 h, 10 h and 24 h after administration, a fixed volume of blood was collected through eye sockets and placed in an EDTA-K2 anticoagulant tube, centrifuging was carried out at 8000 rpm for 1 min to separate plasma into a centrifuge tube, and the plasma was frozen in a −20° C. refrigerator.
The plasma at each time point stored at −20° C. was taken out, then acetonitrile was added, after whirling at 1500 revolutions for 2 min, centrifuging was carried out for 15 min (3500 r/min), and a fixed volume of solution supernatant was taken for LC-MS/MS analysis.
Non-compartment model fitting was carried out on pharmacokinetic behaviors of the tested compounds, and DAS3.31 software was adopted to calculate main pharmacokinetic parameters (T1/2, Tmax, Cmax, AUClast, etc.).

Kasumi-1 cells = test: Kasumi-1 cell proliferation inhibition test (Celltiter GLO); format: cell-based; conditions: Homo sapiens, 168 h, Kasumi-1, 7 days culture
Method: Research had confirmed that LSD1 played a crucial role in the occurrence process of various types of cancers, including small cell lung cancer (SCLC) and acute myeloid leukemia (AML). Therefore, a human acute myeloid leukemia (Kasumi-1) cell line was used to determine the ATP content in cells at different drug concentrations using a Celltiter GLO assay kit, the cell activity was reflected by luminescence intensity, and IC50 values of different compounds on Kasumi-1 cells were calculated using inhibition rates. The inhibitory effects of the compounds in the present application on the proliferation of Kasumi-1 cells were studied to evaluate the anti-tumor efficacy of the tested compounds at the cellular level.
• Day 1 Cells were seeded into the 384-well cell culture plate and placed in a 37° C. 5% CO2 cell incubator to be cultured overnight. • Day 0 The compound to be tested was prepared into a 10 mM mother liquid using DMSO, starting from […], diluted by 3 folds, with 10 concentration points and double duplicate wells. A diluted compound was added into the 384-well cell culture plate and placed in a 37° C. 5% CO2 cell incubator to be cultured for 7 days. The concentration of the DMSO in a cell culture system was 0.1 vol %. • Day 7 Celltiter GLO was added into the 384-well cell culture plate according to a volume ratio of culture system:Celltiter GLO=1:1, light-shielded oscillation was carried out on a plate oscillator for 3 min, then the cell culture plate was placed at the room temperature for 30 min with light shielded, and the plate was read using a multifunctional microplate reader chemical light emitting module.
An inhibition rate was calculated by utilizing luminescence intensity of the above DMSO group (with DMSO added), test group (with the tested compound or a positive control solution added) and blank group (not treating cells), and a calculation formula was as follows: […]
(§1) Using a logarithm of the concentration as an X axis and the percentage inhibition rate as a Y axis, a dose-response curve was fitted using a formula log(inhibitor) vs. response-Variable slope (Four parameters) of analysis software Graphpad Prism 8 to obtain the IC50 value of each compound on Kasumi-1 proliferation inhibition activity.

LSD1 = biological target: T1, LSD1 (Homo sapiens, UniProt O60341); test: LSD1 activity test (HTRF); format: biochemical; conditions: H3(1-21)K4 me1-biotin substrate, read-out: IC50, inhibitory activity on LSD1
T1 construct: purchased Active Motif 31432
Method: In this test, a homogeneous time resolved fluorescence (HTRF) technology was utilized, and the inhibitory activity of compounds on LSD1 was detected by adopting a two-step method. The first step was to incubate LSD1, compounds of different concentrations, and a biotin-labeled methylated polypeptide substrate (H3(1-21)K4 me1-biotin) at the room temperature for fixed time.
A corresponding solution with a 1000-fold final concentration was formed by dilution in a 384-well Source plate, and then Echo550 was used for transferring 10 nL to a 384-well reaction plate for being tested.
An inhibition percentage was calculated using a maximum value, a minimum value, and a signal value (maximum value: fluorescence intensity of 5 μL of 2× enzyme solution+5 μL of 2× substrate mixed solution+10 nL of 100% DMSO+10 μL of detection solution; minimum value: fluorescence intensity of 5 μL of 1× reaction solution+5 μL of 2× substrate mixed solution+10 nL of 100% DMSO+10 μL of detection solution; and signal value: fluorescence intensity of 5 μL of 2× enzyme solution+5 μL of 2× substrate mixed solution+10 nL of diluted compound to be tested+10 μL of detection solution), and a calculation formula was as follows: […]
as §1, with “5” for “8”, “the enzyme” for “Kasumi-1 proliferation inhibition”

[3] = iv, i.v. 5.0 mg/kg, 5% DMSO+10% Solutol+85% Saline
[4] = po, p.o. 5.0 mg/kg, 0.5% sodium methylcellulose aqueous solution

Row | Compound | TGI [1] | AUC(0-t) [2, 3] | Cmax [2, 3] | Tmax [2, 3] | half-life [2, 3] | bioavailability [2] | AUC(0-t) [2, 4] | Cmax [2, 4] | Tmax [2, 4] | half-life [2, 4] | IC50 (Kasumi-1 cells) | IC50 (LSD1)
1 | COc1ccc(-c2c(-c3ccc(C#N)c(F)c3)nc(N3CCC(N)CC3)n(C)c2=O)cc1F [CC-90011, reference compound] | 35.3% | 906 ± 194 ng·h/mL | 895 ± 90.4 ng/mL | 0.08 h | 199 ± 43.2 min | 32.1% | 299 ± 178 ng·h/mL | 49.2 ± 8.71 ng/mL | 2.67 ± 1.15 h | 249 ± 42 min | 3.18 nM | 
2 | CC(C)(O)Cn1ncc2cc(-c3c(C#N)cc(N4CCC(N)CC4)nc3-c3ccc(C#N)c(F)c3)c(F)cc21 [Compound 16, 6-(4-aminopiperid-1-yl)-2-(4-cyano-3-fluorophenyl)-3-(6-fluoro-1-(2-hydroxyl-2-methylpropyl)-1H-indazol-5-yl)isonicotinonitrile] | 73.2% | 1490 ± 157 ng·h/mL | 765 ± 181 ng/mL | 0.08 h | 337 ± 77.4 min | 46.2% | 693 ± 248 ng·h/mL | 75.2 ± 20.3 ng/mL | 4 h | 284 ± 13.2 min | 0.59 nM | 0.23 nM
3 | CC(C)(O)Cn1nc(F)c2cc(-c3c(C#N)cc(N4CCC(N)CC4)nc3-c3ccc(C#N)c(F)c3)c(F)cc21 [Compound 36, 6-(4-aminopiperid-1-yl)-2-(4-cyano-3-fluorophenyl)-3-(3,6-difluoro-1-(2-hydroxyl-2-methylpropyl)-1H-indazol-5-yl)isonicotinonitrile] |  |  |  |  |  |  |  |  |  |  |  | 0.45 nM
